Laboratory results: the supplement of paper PMC11061612

Experiments:
Assay in all cases: combination Emax (second highest fraction inhibited in the dose matrix, 72 h); higher = more inhibition; extreme values may be limits of the assay
[1] = system: A4-Fuk (B-Lymphoblastic Leukemia)
Procedure, shortened: (§1)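 After 24 hours at 37°C and 5% CO2 in 1536-well plates, cells in DMEM/F12 or RPMI plus 10% FBS received two-drug dose matrices for 72 hours. Viability came from CellTiter-Glo 2.0 luminescence and was scaled as inhibition, anchored at 0 by vehicle wells and at 1 by blank wells. Combination Emax is taken as the second-highest inhibition in the matrix, and Bliss excess as the observed combination effect less EA + EB − EA·EB, with EA and EB the single-agent effects.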

[2] = system: ALL-SIL (T-Lymphoblastic Leukemia)
Procedure, shortened: as §1

COLO-679 (Melanoma) = system: COLO-679 (Melanoma)
Procedure, shortened: as §1

[3] = system: EJM (Plasma Cell Myeloma)
Procedure, shortened: as §1

[4] = system: HCC2998 (Colorectal Carcinoma)
Procedure, shortened: as §1

[5] = system: KMRC-1 (Kidney Carcinoma)
Procedure, shortened: as §1

[6] = system: KOPN-8 (B-Lymphoblastic Leukemia)
Procedure, shortened: as §1

[7] = system: LC-1-sq (Squamous Cell Lung Carcinoma)
Procedure, shortened: as §1

[8] = system: MDA-MB-453 (Breast Carcinoma)
Procedure, shortened: as §1

[9] = system: ML-2 (Acute Myeloid Leukemia)
Procedure, shortened: as §1

[10] = system: MOLT-4 (T-Lymphoblastic Leukemia)
Procedure, shortened: as §1

[11] = system: NCI-H1092 (Small Cell Lung Carcinoma)
Procedure, shortened: as §1

[12] = system: NCI-H1355 (Lung Adenocarcinoma)
Procedure, shortened: as §1

[13] = system: NCI-H1838 (Lung Adenocarcinoma)
Procedure, shortened: as §1

[14] = system: NCI-H1993 (Lung Adenocarcinoma)
Procedure, shortened: as §1

SK-N-AS (Neuroblastoma) = system: SK-N-AS (Neuroblastoma)
Procedure, shortened: as §1

[15] = system: SKN (Other Solid Carcinomas)
Procedure, shortened: as §1

[16] = system: SNU-387 (Hepatocellular Carcinoma)
Procedure, shortened: as §1

[17] = system: SW872 (Other Solid Carcinomas)
Procedure, shortened: as §1

[18] = system: SW982 (Other Solid Carcinomas)
Procedure, shortened: as §1

Row | Compound | combination Emax [1] | combination Emax [2] | combination Emax (COLO-679 (Melanoma)) | combination Emax [3] | combination Emax [4] | combination Emax [5] | combination Emax [6] | combination Emax [7] | combination Emax [8] | combination Emax [9] | combination Emax [10] | combination Emax [11] | combination Emax [12] | combination Emax [13] | combination Emax [14] | combination Emax (SK-N-AS (Neuroblastoma)) | combination Emax [15] | combination Emax [16] | combination Emax [17] | combination Emax [18]
1 | CC(=O)c1c(C)c2cnc(Nc3ccc(N4CCNCC4)cn3)nc2n(C2CCCC2)c1=O [Palbociclib] + Cc1c2c(nn1C)CSCc1cc(n(C)n1)CSc1cc(c3ccccc3c1)OCCCc1c(C(=O)O)n(C)c3c-2c(Cl)ccc13 [AZD5991] (first compound max 10 µM, 7x7, partner max 1 µM) | 1 | 0.446 | 0.335 | 0.443 | 0.905 | 0.322 | 0.917 | 0.241 | 0.282 | 1 | 0.9 | 0.608 | 0.345 | 0.363 | 0.403 | 0.461 | 0.385 | 0.429 | 0.228 | 0.528
2 | Cc1c2c(nn1C)CSCc1cc(n(C)n1)CSc1cc(c3ccccc3c1)OCCCc1c(C(=O)O)n(C)c3c-2c(Cl)ccc13 [AZD5991] + C1CN(CCC1(C(=O)N[C@@H](CCO)C2=CC=C(C=C2)Cl)N)C3=NC=NC4=C3C=CN4 [Capivasertib] (first compound max 1 µM, 7x7, partner max 3 µM) | 1 | 1 | 0.19 | 0.977 | 0.902 | 0.432 | 0.901 | 0.217 | 0.61 | 1 | 0.92 | 0.534 | 0.227 | 0.306 | 0.461 | 0.692 | 0.455 | 0.345 | 0.282 | 0.192
3 | CN(CCO)CC[C@H](CSc1ccccc1)Nc1ccc(S(=O)(=O)NC(=O)c2ccc(N3CCC([C@@H](O)c4ccccc4-c4ccc(Cl)cc4)CC3)cc2)cc1S(=O)(=O)C(F)(F)F [AZD4320] + CN(C)CCCOc1ccc(-c2ccc3ncc4c(c3c2)n(C2CCOCC2)c(=O)n4C)cn1 [AZD0156] (first compound max 1 µM, 7x7, partner max 1 µM) | 0.476 | 1 | 0.162 | 0.162 | 0.554 | 0.2 | 0.898 | 0.217 | 0.175 | 0.963 | 0.976 | 0.862 | 0.162 | 0.225 | 0.742 | 0.109 | 0.127 | 0.183 | 0.148 | 0.225
4 | CCN(CCO)CCCOc1ccc2c(Nc3cc(CC(=O)Nc4cccc(F)c4)[nH]n3)ncnc2c1 [AZD2811] + O=C(c1cc(Cc2n[nH]c(=O)c3ccccc23)ccc1F)N1CCN(C(=O)C2CC2)CC1 [Olaparib] (first compound max 1 µM, 7x7, partner max 10 µM) | 0.437 | 0.953 | 0.281 | 0.167 | 0.247 | 0.19 | 0.709 | 0.305 | 0.112 | 0.835 | 0.974 | 0.212 | 0.318 | 0.275 | 0.191 | 0.249 | 0.127 | 0.17 | 0.172 | 0.658
5 | COc1cccc2c1C(=O)c1c(O)c3c(c(O)c1C2=O)C[C@@](O)(C(=O)CO)C[C@@H]3O[C@H]1C[C@H](N)[C@H](O)[C@H](C)O1 [Doxorubicin] + Cc1cc2ncnn2cc1Nc1ncc2c(n1)n(C1CCOCC1)c(=O)n2C [AZD7648] (first compound max 1 µM, 7x7, partner max 10 µM) | 0.877 | 0.983 | 0.959 | 0.903 | 0.943 | 0.518 | 0.916 | 0.727 | 0.639 | 0.913 | 1 | 0.479 | 0.624 | 0.559 | 0.968 | 0.723 | 0.779 | 0.65 | 0.811 | 0.884
6 | NC1(C(=O)N[C@@H](CCO)c2ccc(Cl)cc2)CCN(c2ncnc3[nH]ccc23)CC1 [Capivasertib] + COc1nnc2ccc(N3CCC(c4ccc(OCCN5CCN(C)C(=O)[C@H]5C)cc4)CC3)nn12 [AZD5153] (first compound max 10 µM, 7x7, partner max 1 µM) | 0.95 | 0.841 | 0.578 | 0.658 | 0.872 | 0.557 | 0.992 | 0.815 | 0.93 | 0.997 | 1 | 0.364 | 0.503 | 0.264 | 0.676 | 0.445 | 0.725 | 0.552 | 0.553 | 0.848
7 | NC1(C(=O)N[C@@H](CCO)c2ccc(Cl)cc2)CCN(c2ncnc3[nH]ccc23)CC1 [Capivasertib] + Cn1cnc2c(F)c(Nc3ccc(Br)cc3Cl)c(C(=O)NOCCO)cc21 [Selumetinib] (first compound max 10 µM, 7x7, partner max 10 µM) | 0.905 | 0.513 | 0.786 | 0.403 | 0.774 | 0.504 | 0.722 | 0.34 | 0.572 | 0.985 | 0.758 | 0.215 | 0.443 | 0.367 | 0.839 | 0.515 | 0.594 | 0.409 | 0.449 | 0.574
8 | CC(=O)c1c(C)c2cnc(Nc3ccc(N4CCNCC4)cn3)nc2n(C2CCCC2)c1=O [Palbociclib] + CC1(C)CCC(CN2CCN(c3ccc(C(=O)NS(=O)(=O)c4ccc(NCC5CCOCC5)c([N+](=O)[O-])c4)c(Oc4cnc5[nH]ccc5c4)c3)CC2)=C(c2ccc(Cl)cc2)C1 [Venetoclax] (first compound max 10 µM, 7x7, partner max 1 µM) | 0.552 | 0.76 | 0.0736 | 0.159 | 0.416 | 0.162 | 0.958 | 0.166 | 0.275 | 0.949 | 0.629 | 0.222 | 0.242 | 0.279 | 0.403 | 0.125 | 0.342 | 0.129 | 0.0843 | 0.57
9 | COc1cccc(OCCCN)c1-c1cc(Nc2cnc(C#N)cn2)n[nH]1 [Prexasertib] + CN(C)CCCOc1ccc(-c2ccc3ncc4c(c3c2)n(C2CCOCC2)c(=O)n4C)cn1 [AZD0156] (first compound max 1 µM, 7x7, partner max 1 µM) | 0.885 | 0.958 | 0.871 | 0.93 | 0.969 | 0.558 | 0.947 | 0.953 | 0.926 | 1 | 1 | 0.74 | 0.709 | 0.598 | 0.826 | 1 | 0.421 | 0.531 | 0.863 | 0.759
10 | Cn1cnc2c(F)c(Nc3ccc(Br)cc3Cl)c(C(=O)NOCCO)cc21 [Selumetinib] + CCN(CCO)CCCOc1ccc2c(Nc3cc(CC(=O)Nc4cccc(F)c4)[nH]n3)ncnc2c1 [AZD2811] (first compound max 10 µM, 7x7, partner max 1 µM) | 0.661 | 0.961 | 0.815 | 0.175 | 0.792 | 0.233 | 1 | 0.303 | 0.162 | 1 | 0.992 | 0.215 | 0.275 | 0.322 | 0.703 | 0.496 | 0.255 | 0.319 | 0.285 | 0.594
11 | NC1(C(=O)N[C@@H](CCO)c2ccc(Cl)cc2)CCN(c2ncnc3[nH]ccc23)CC1 [Capivasertib] + CC(C)n1c(=O)n(C)c2cnc3cc(F)c(-c4ccc(OCCCN5CCCCC5)nc4)cc3c21 [AZD1390] (first compound max 10 µM, 7x7, partner max 0.3 µM) | 0.786 | 0.389 | 0.225 | 0.292 | 0.398 | 0.435 | 0.627 | 0.253 | 0.56 | 0.71 | 0.682 | 0.2 | 0.273 | 0.206 | 0.595 | 0.157 | 0.516 | 0.256 | 0.342 | 0.435
12 | COc1nnc2ccc(N3CCC(c4ccc(OCCN5CCN(C)C(=O)[C@H]5C)cc4)CC3)nn12 [AZD5153] + CCN(CCO)CCCOc1ccc2c(Nc3cc(CC(=O)Nc4cccc(F)c4)[nH]n3)ncnc2c1 [AZD2811] (first compound max 1 µM, 7x7, partner max 1 µM) | 0.893 | 1 | 0.485 | 0.613 | 0.752 | 0.316 | 0.996 | 0.609 | 0.677 | 1 | 1 | 0.374 | 0.509 | 0.441 | 0.479 | 0.447 | 0.608 | 0.487 | 0.578 | 0.807
